Activity calls are given as the source filed them. No cut-off for these calls is given here. Where a SMILES comes first, the peptide text is derived from it. The star is where a group is joined. X1 = [N-]=[N+]=Nc1ccc(C(=O)NCCN2C(=O)CC(*)C2=O)c(O)c1; Biotin = O=C1N[C@H]2[C@H](CS[C@H]2CCCCC(=O)*)N1
Legend:
Type in all cases: cell-based
[1] = target: KiSS-1 receptor (Homo sapiens) (UniProt Q969F8); experiment: Binding affinity to GPR54 in HEK293 cells at 500 nM incubated for 1 hr followed by UV irradiation for 30 secs by Western blot analysis
Chain of KiSS-1 receptor (Homo sapiens) (Q969F8 whole entry): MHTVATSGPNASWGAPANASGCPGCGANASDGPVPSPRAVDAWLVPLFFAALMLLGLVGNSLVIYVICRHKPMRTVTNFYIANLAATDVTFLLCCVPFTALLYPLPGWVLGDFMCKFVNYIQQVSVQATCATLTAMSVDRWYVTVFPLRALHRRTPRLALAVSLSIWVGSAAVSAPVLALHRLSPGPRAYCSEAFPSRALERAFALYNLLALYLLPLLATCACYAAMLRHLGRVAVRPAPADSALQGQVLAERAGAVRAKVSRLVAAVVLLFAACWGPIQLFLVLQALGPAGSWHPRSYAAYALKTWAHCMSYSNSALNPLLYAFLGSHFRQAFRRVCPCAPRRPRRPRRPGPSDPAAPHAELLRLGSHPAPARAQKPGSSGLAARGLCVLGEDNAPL

[2] = target: KiSS-1 receptor (Homo sapiens) (UniProt Q969F8); experiment: Binding affinity to GPR54 in HEK293 cells at 500 nM incubated for 1 hr followed by UV irradiation for 30 secs by Western blot analysis in presence of PNGase F
[3] = target: KiSS-1 receptor (Homo sapiens) (UniProt Q969F8); experiment: Competitive binding affinity to GPR54 in HEK293 cells at 500 nM incubated for 1 hr followed by UV irradiation for 30 secs by Western blot analysis in presence of unlabeled Kp-10

Activity [1] | Activity [2] | Activity [3] | SMILES
inactive | – | – | CC(C)C[C@H](NC(=O)CNC(=O)[C@H](Cc1ccccc1)NC(=O)[C@H](CO)NC(=O)[C@H](CC(N)=O)NC(=O)[C@H](Cc1c[nH]c2ccccc12)NC(=O)[C@H](CC(N)=O)NC(=O)[C@H](CSC1CC(=O)N(CCNC(=O)c2ccc(N=[N+]=[N-])cc2O)C1=O)NC(=O)[C@H](CC(N)=O)NC(=O)[C@@H]1CCCN1C(=O)[C@H](CC(C)C)NC(=O)[C@H](CC(=O)O)NC(=O)CCCC[C@@H]1SC[C@@H]2NC(=O)N[C@@H]21)C(=O)N[C@@H](CCCNC(=N)N)C(=O)N[C@@H](Cc1ccccc1)C(N)=O (some centres undefined) (Biotin-DLPNC(X1)NWNSFGLRF-NH2)
inactive | – | – | CC(C)C[C@H](NC(=O)CNC(=O)[C@H](Cc1ccccc1)NC(=O)[C@H](CO)NC(=O)[C@H](CC(N)=O)NC(=O)[C@H](Cc1c[nH]c2ccccc12)NC(=O)[C@H](CSC1CC(=O)N(CCNC(=O)c2ccc(N=[N+]=[N-])cc2O)C1=O)NC(=O)[C@H](Cc1ccc(O)cc1)NC(=O)[C@H](CC(N)=O)NC(=O)[C@@H]1CCCN1C(=O)[C@H](CC(C)C)NC(=O)[C@H](CC(=O)O)NC(=O)CCCC[C@@H]1SC[C@@H]2NC(=O)N[C@@H]21)C(=O)N[C@@H](CCCNC(=N)N)C(=O)N[C@@H](Cc1ccccc1)C(N)=O (some centres undefined) (Biotin-DLPNYC(X1)WNSFGLRF-NH2)
– | inactive | inactive | CC(C)C[C@H](NC(=O)CNC(=O)[C@H](Cc1ccccc1)NC(=O)[C@H](CO)NC(=O)[C@H](CC(N)=O)NC(=O)[C@H](CSC1CC(=O)N(CCNC(=O)c2ccc(N=[N+]=[N-])cc2O)C1=O)NC(=O)[C@H](CC(N)=O)NC(=O)[C@H](Cc1ccc(O)cc1)NC(=O)[C@H](CC(N)=O)NC(=O)[C@@H]1CCCN1C(=O)[C@H](CC(C)C)NC(=O)[C@H](CC(=O)O)NC(=O)CCCC[C@@H]1SC[C@@H]2NC(=O)N[C@@H]21)C(=O)N[C@@H](CCCNC(=N)N)C(=O)N[C@@H](Cc1ccccc1)C(N)=O (some centres undefined) (Biotin-DLPNYNC(X1)NSFGLRF-NH2)
